Measured values from patent US11524958B2, “Tricyclic compound as CRTH2 inhibitor” (CHIA TAI TIANQING PHARMACEUTICAL GROUP CO., LTD., priority 2016, dated 2022).

target: T1, CRTH2 receptor (Homo sapiens, UniProt Q9Y5Y4); experiment: PathHunter CHO-K1 CRTH2 β-arrestin assay (DiscoverX), antagonism of PGD2; type: cell-based; settings: PathHunter CHO-K1 CRTH2 β-arrestin cells; compound 30 min, then EC80 agonist (PGD2) 90 min, 37° C.; chemiluminescent signal
T1 construct: host or cells: CHO-K1 (PathHunter β-arrestin line)
T1 sequence (Q9Y5Y4 1-395): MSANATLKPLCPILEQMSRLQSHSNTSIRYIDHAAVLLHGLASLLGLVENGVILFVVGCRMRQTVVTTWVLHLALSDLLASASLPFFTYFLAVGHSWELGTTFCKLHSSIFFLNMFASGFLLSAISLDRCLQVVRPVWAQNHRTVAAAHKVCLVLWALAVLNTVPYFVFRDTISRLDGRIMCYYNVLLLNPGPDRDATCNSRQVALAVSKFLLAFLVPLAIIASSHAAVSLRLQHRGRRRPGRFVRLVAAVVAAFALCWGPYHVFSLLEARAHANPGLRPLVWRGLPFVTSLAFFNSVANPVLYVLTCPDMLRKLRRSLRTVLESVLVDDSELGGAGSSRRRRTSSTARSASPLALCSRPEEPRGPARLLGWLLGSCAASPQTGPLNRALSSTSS
Description: DiscoverX Corporation in the U.S was entrusted to complete this experiment by β-arrestin assay. The experimental method and results were listed below: PathHunter® CHO-K1 CRTH2 β-arrestin cells (DiscoverX, catalogue number 93-0291C2) grew under standard conditions, and were inoculated into a white-wall 384-well microplate at a density of 5,000 cells/well. 20 μL of Cell Plating Reagent 1 was used in each well. Before the test, the cells were incubated overnight at 37° C./5% CO2. A test compound was serially diluted in DMSO with a dilution factor of 3-fold to give 8 concentrations of the test compound. Shortly before the test, the serially diluted test compound was further diluted with the test buffer to 5 times of the test concentration. 5 μL of the further diluted test compound was added to the cells, and the cells were incubated for 30 min at 37° C. The concentration of the solvent was 1%. 5 μL of 6× EC80 agonist (PGD2) buffer was added to the cells, and the cells were incubated for 90 min at 37° C. Measured signals were generated by one-time addition of 15 μL (50% v/v) of PathHunter detection mixture reagent and subsequent one-hour incubation. The microplate was read through the chemiluminescent signals of PerkinElmer Envision™ reader. Biological activity of the test compound was analyzed by CBIS data analysis suite (ChemInnovation, CA), and was denoted as IC50 value.

Row | SMILES | IC50
1 | CS(=O)(=O)c1ccc(Cc2c3ccccc3n3cc(C(=O)O)ncc23)cn1 [Example 30] | > 1 µM
2 | O=C(O)CC1CCc2c(Cc3ccc4ccccc4n3)c3ccccc3n2C1 (stereo not shown) [Example 10] | > 1 µM
3 | CS(=O)(=O)c1ccc(Cc2c3n(c4ccccc24)C(CC(=O)O)CCC3)cc1 (stereo not shown) [Example 7] | > 1 µM
4 | O=C(O)C1CCc2c(Cc3ccc4c(c3)C(F)C(F)(F)S4(=O)=O)c3cc(F)ccc3n2C1 (stereo not shown) [Example 33] | > 1 µM
5 | O=C(O)C1CCCc2c(Cc3cccnc3S(=O)(=O)c3ccccc3)c3ccccc3n21 (stereo not shown) [Example 2] | 0.1 to 1 µM
6 | CS(=O)(=O)c1ccc(Cc2c3n(c4ccc(OC(F)F)cc24)CC(C(=O)O)CC3)c(C(F)(F)F)c1 (stereo not shown) [Example 35] | < 0.1 µM
7 | CS(=O)(=O)c1ccc(Cc2c3n(c4ccccc24)CC(C(=O)O)CC3)c(C(F)(F)F)c1 (single isomer, unassigned) [Example 16 peak1] | > 1 µM
8 | COc1cc(C(F)(F)F)c(Cc2c3n(c4ccccc24)CC(C(=O)O)CC3)cn1 (stereo not shown) [Example 40] | > 1 µM
9 | CS(=O)(=O)c1ccc(Cc2c3n(c4ccccc24)C(CC(=O)O)CCC3)c(C(F)(F)F)c1 (stereo not shown) [Example 8] | > 1 µM
10 | CS(=O)(=O)c1ccc(Cc2c3n(c4ccccc24)CC(CC(=O)O)CC3)c(C(F)(F)F)c1 (stereo not shown) [Example 15] | > 1 µM
11 | CS(=O)(=O)c1ccc(Cc2c3n(c4ccccc24)CC(C(=O)O)CC3)nc1 (stereo not shown) [Example 39] | > 1 µM
12 | CS(=O)(=O)c1ccc(Cc2c3n(c4ncccc24)CC(C(=O)O)CC3)c(C(F)(F)F)c1 (stereo not shown) [Example 42] | > 1 µM
13 | O=C(O)C1CCc2c(Cc3cccnc3S(=O)(=O)c3ccc(Cl)cc3)c3ccccc3n2C1 (stereo not shown) [Example 17] | 0.1 to 1 µM
14 | CS(=O)(=O)c1ccc(Cc2c3n(c4ccccc24)CC(C(=O)O)CC3)cn1 (stereo not shown) [Example 41] | > 1 µM
15 | CS(=O)(=O)c1ccc(Cc2c3ccccc3n3cc(C(=O)O)ncc23)c(C(F)(F)F)c1 [Example 31] | > 1 µM
16 | O=C(O)C1CCc2c(Cc3ccc4ccccc4n3)c3cc(F)ccc3n2C1 (stereo not shown) [Example 27] | > 1 µM
17 | CS(=O)(=O)c1ccc(Cc2c3n(c4ccc(F)cc24)CC(C(=O)O)CC3)c(F)c1 (stereo not shown) [Example 26] | 0.1 to 1 µM
18 | CS(=O)(=O)c1ccc(Cc2c3n(c4ccccc24)C(C(=O)O)CCC3)cc1 (stereo not shown) [Example 1] | > 1 µM
19 | CS(=O)(=O)c1ccc(Cc2c3n(c4ccccc24)CC(C(=O)O)CC3)c(C(F)(F)F)c1 (single isomer, unassigned) [Example 16 peak2] | < 0.1 µM
20 | CS(=O)(=O)c1ccc(Cc2c3ccccc3n3cc(C(=O)O)ncc23)cc1 [Example 29] | > 1 µM
21 | CS(=O)(=O)c1ccc(Cc2c3n(c4ccccc24)CC(CC(=O)O)CC3)cc1 (stereo not shown) [Example 9] | > 1 µM
22 | CC1(C(=O)O)CCc2c(Cc3ccc(S(C)(=O)=O)cc3F)c3ccccc3n2C1 (stereo not shown) [Example 21] | > 1 µM
23 | CC1(C(=O)O)CCc2c(Cc3ccc(S(C)(=O)=O)cc3C(F)(F)F)c3ccccc3n2C1 (stereo not shown) [Example 18] | > 1 µM
24 | CS(=O)(=O)c1ccc(Cc2c3n(c4ccccc24)C(C(=O)O)CCC3)c(C(F)(F)F)c1 (stereo not shown) [Example 6] | 0.1 to 1 µM
25 | CS(=O)(=O)c1ccc(Cc2c3n(c4ccccc24)CC(C(=O)O)C3)c(C(F)(F)F)c1 (stereo not shown) [Example 32] | 0.1 to 1 µM
26 | CC1(C(=O)O)CCc2c(Cc3ccc(C(F)(F)F)nc3)c3ccccc3n2C1 (stereo not shown) [Example 20] | > 1 µM
27 | COc1ccc2c(c1)c(Cc1ccc(S(C)(=O)=O)cc1C(F)(F)F)c1n2CC(C(=O)O)CC1 (stereo not shown) [Example 34] | < 0.1 µM
28 | O=C(O)CC1CCc2c(Cc3cccnc3S(=O)(=O)c3ccccc3)c3ccccc3n2C1 (stereo not shown) [Example 11] | > 1 µM
29 | CS(=O)(=O)c1ccc(Cc2c3n(c4ccccc24)CC(C(=O)O)CC3)c(C(F)(F)F)c1 (stereo not shown) [Example 16] | < 0.1 µM
30 | CS(=O)(=O)c1ccc(Cc2c3n(c4ccc(Cl)cc24)CC(C(=O)O)CC3)c(F)c1 (stereo not shown) [Example 23] | 0.1 to 1 µM

The next lines start with the values.

Row | IC50 | SMILES
31 | > 1 µM | O=C(O)C1CCc2c(Cc3ccc4c(c3)S(=O)(=O)CC4)c3cc(F)ccc3n2C1 (stereo not shown) [Example 44]
32 | < 0.1 µM | CS(=O)(=O)c1ccc(Cc2c3n(c4ccc(Cl)cc24)CC(C(=O)O)CC3)c(C(F)(F)F)c1 (stereo not shown) [Example 22]
33 | 0.1 to 1 µM | CS(=O)(=O)c1ccc(Cc2c3n(c4ccc(F)cc24)CC(C(=O)O)CC3)c(C(F)(F)F)c1 (single isomer, unassigned) [Example 25 peak1]
34 | > 1 µM | O=C(O)C1CCc2c(Cc3cccc4c3CCS4(=O)=O)c3cc(F)ccc3n2C1 (stereo not shown) [Example 38]
35 | < 0.1 µM | CS(=O)(=O)c1ccc(Cc2c3n(c4ccc(F)cc24)CC(C(=O)O)CC3)c(C(F)(F)F)c1 (stereo not shown) [Example 25]
36 | > 1 µM | O=C(O)C1CCc2c(Cc3cc4c(cc3C(F)(F)F)S(=O)(=O)CC4)c3cc(F)ccc3n2C1 (stereo not shown) [Example 36]
37 | < 0.1 µM | CS(=O)(=O)c1ccc(Cc2c3n(c4ccc(Cl)cc24)CC(C(=O)O)CC3)c(C(F)(F)F)c1 (single isomer, unassigned) [Example 22 peak1]
38 | > 1 µM | O=C(O)C1CCc2c(Cc3ccc4c(c3)CCS4(=O)=O)c3cc(Cl)ccc3n2C1 (stereo not shown) [Example 24]
39 | > 1 µM | O=C(O)C1CCc2c(Cc3ccc4c(c3)C(F)(F)CCS4(=O)=O)c3cc(F)ccc3n2C1 (stereo not shown) [Example 43]
40 | < 0.1 µM | CS(=O)(=O)c1ccc(Cc2c3n(c4ccc(F)cc24)CC(C(=O)O)CC3)c(C(F)(F)F)c1 (single isomer, unassigned) [Example 25 peak2]
41 | > 1 µM | O=C(O)C1CCc2c(Cc3cc4c(cc3C(F)(F)F)S(=O)(=O)CC4)c3cc(Cl)ccc3n2C1 (stereo not shown) [Example 37]
42 | > 1 µM | CS(=O)(=O)c1ccc(Cc2c3n(c4ccc(Cl)cc24)CC(C(=O)O)CC3)c(C(F)(F)F)c1 (single isomer, unassigned) [Example 22 peak2]
43 | > 1 µM | O=C(O)C1CCc2c(Cc3ccc4c(c3)CCS4(=O)=O)c3cc(F)ccc3n2C1 (stereo not shown) [Example 28]
